Laboratory results: ChEMBL document CHEMBL1201862, “PubChem BioAssay data set” (2004)
Calls of active or inactive are those of the source.

Assays:
[1] = target: Metabotropic glutamate receptor 3 (Rattus norvegicus, UniProt P31422); test: inhibition of rat mGlu3 glutamate signaling – HEK/GIRK cells, thallium flux, dose response (AID 651839); type: functional
[2] = disruptors of Keap1/Nrf2 protein interaction – biochemical, fluorescence polarization, dry powder, set 3, dose response (AID 651806)
[3] = Late stage assay provider results from the probe development effort to identify selective inhibitors of heat shock protein 90 (HSP90): Absorbance-based cell proliferation assay in SKBR3 cells.; type: functional; settings: SK-BR-3
[4] = Late stage assay provider results from the probe development effort to identify selective inhibitors of heat shock protein 90 (HSP90): Absorbance-based cell proliferation assay in MCF7 cells.; type: functional
[5] = inhibitors of EBV LMP1 NF-kappaB signaling – cell-based, luciferase reporter, luminescence, dry powder, set 2, dose response (AID 624376); type: functional
[6] = cytotoxicity in HEK293 background cells – cell-based, dry powder, set 2, counter-screen for EBV LMP1 inhibitor project, dose response (AID 624374); type: functional
[7] = target: Albumin (Bos taurus, UniProt P02769); test: Counterscreen for inhibitors of T-cell receptor (TCR)-CD3 interaction: Fluorescence-based biochemical high throughput dose response assay to identify inhibitors of T-cell receptor (TCR)-CD3 interaction using a TAMRA-labeled BSA probe.; type: functional
Sequence of Albumin (P02769 whole entry): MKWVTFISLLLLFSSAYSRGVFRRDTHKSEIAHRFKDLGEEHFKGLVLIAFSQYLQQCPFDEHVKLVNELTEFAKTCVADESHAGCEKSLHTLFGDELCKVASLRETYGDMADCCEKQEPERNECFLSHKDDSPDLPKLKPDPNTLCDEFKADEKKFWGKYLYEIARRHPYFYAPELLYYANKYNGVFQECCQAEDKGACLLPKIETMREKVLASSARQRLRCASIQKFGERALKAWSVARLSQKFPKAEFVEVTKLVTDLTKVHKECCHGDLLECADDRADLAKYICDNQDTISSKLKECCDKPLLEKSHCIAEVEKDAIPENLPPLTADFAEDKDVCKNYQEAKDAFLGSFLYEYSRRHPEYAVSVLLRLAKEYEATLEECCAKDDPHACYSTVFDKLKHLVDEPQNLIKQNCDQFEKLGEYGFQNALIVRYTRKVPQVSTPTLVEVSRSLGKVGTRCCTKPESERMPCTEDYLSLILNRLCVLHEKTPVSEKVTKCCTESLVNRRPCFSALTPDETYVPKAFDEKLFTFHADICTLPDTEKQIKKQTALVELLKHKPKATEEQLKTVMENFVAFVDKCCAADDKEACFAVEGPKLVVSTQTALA

[8] = tested on: H9c2; test: cells; type: functional, cell-based; settings: Rattus norvegicus, H9c2, Myocardium;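 note: confirmatory concentration-response retest of ultra-high-throughput screening hits for modulation of myocardial damage; cell death induced by hydrogen peroxide oxidative stress; compound pretreatment for 60 min then peroxide exposure for 2 h; potency is for protecting the cells against peroxide damage rather than for killing them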
[9] = target: Oxysterols receptor LXR-beta (Homo sapiens, UniProt P55055); type: functional, cell-based;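 note: agonist activity at LXR measured by a cell-based luminescence readout across a dose range, run as a counterscreen for daf-12 agonists; HEK293 cells with Gal4-LXR fusion and GAL4-driven luciferase reporter; potency for activation of Gal4-LXR reporter so compounds are agonists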
Sequence of Oxysterols receptor LXR-beta (P55055 whole entry, the tested form may be a part): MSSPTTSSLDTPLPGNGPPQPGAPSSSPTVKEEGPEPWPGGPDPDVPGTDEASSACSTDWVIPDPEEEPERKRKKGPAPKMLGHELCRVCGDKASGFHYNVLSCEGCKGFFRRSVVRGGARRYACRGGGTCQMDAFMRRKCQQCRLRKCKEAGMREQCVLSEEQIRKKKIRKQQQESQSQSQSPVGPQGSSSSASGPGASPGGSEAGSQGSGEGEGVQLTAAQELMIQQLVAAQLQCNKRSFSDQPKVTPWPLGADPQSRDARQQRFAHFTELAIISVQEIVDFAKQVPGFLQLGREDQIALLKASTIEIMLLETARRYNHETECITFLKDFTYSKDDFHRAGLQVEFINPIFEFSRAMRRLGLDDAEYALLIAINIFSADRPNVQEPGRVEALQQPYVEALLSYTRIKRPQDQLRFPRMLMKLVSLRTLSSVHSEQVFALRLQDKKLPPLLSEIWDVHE

[10] = target: T1, Replicative DNA helicase DnaB (Mycobacterium tuberculosis, UniProt P9WMR3); test: DnaB intein splicing inhibitors, dose response, biochemical, cell-free fluorescence (AID 449749); type: functional
T1 sequence (P9WMR3 whole entry): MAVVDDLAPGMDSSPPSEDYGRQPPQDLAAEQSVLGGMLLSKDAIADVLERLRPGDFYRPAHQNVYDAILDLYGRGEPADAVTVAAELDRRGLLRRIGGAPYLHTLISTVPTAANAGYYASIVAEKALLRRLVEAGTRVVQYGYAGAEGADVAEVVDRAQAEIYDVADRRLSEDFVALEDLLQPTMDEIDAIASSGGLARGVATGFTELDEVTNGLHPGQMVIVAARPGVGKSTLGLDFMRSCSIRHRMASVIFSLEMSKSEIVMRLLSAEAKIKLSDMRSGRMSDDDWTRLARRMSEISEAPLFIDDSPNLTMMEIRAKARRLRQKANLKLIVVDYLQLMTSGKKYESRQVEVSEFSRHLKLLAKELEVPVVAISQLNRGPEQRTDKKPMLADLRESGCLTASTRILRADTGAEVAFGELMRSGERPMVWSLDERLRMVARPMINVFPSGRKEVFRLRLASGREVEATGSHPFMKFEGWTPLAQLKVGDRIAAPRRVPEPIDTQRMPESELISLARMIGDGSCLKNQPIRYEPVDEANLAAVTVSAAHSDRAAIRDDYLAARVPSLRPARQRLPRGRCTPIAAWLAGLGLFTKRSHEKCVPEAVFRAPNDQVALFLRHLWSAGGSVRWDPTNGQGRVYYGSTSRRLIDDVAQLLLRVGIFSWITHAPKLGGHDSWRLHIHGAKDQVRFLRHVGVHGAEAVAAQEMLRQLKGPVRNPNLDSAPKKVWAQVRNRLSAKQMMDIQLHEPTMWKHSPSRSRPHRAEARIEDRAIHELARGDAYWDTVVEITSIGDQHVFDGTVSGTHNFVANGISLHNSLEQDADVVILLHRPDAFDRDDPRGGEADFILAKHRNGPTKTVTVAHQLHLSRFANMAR

[11] = target: Tyrosyl-DNA phosphodiesterase 2 (Homo sapiens, UniProt O95551); test: potency against TDP2 phosphodiesterase activity – biochemical, epi absorbance, IC50, dose response (AID 743297)
Sequence of Tyrosyl-DNA phosphodiesterase 2 (O95551 whole entry): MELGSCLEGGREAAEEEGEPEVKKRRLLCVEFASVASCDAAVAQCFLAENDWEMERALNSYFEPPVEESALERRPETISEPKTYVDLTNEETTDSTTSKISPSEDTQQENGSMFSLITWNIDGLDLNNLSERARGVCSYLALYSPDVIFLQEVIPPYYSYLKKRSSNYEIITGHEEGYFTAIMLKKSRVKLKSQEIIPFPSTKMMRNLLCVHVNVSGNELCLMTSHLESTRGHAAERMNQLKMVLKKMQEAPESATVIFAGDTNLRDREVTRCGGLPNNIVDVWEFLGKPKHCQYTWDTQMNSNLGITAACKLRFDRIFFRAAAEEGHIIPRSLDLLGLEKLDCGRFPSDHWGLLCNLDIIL

[12] = target: T2, Protein RecA (Mycobacterium tuberculosis, UniProt P9WHJ3); test: Fluorescence Cell-Free Homogeneous Dose Retest to Identify Inhibitors of RecA-Intein Splicing Activity. [Related pubchem assays (depositor defined):AID2097, AID2223, AID489010, AID492950]; type: functional
T2 sequence (P9WHJ3 whole entry): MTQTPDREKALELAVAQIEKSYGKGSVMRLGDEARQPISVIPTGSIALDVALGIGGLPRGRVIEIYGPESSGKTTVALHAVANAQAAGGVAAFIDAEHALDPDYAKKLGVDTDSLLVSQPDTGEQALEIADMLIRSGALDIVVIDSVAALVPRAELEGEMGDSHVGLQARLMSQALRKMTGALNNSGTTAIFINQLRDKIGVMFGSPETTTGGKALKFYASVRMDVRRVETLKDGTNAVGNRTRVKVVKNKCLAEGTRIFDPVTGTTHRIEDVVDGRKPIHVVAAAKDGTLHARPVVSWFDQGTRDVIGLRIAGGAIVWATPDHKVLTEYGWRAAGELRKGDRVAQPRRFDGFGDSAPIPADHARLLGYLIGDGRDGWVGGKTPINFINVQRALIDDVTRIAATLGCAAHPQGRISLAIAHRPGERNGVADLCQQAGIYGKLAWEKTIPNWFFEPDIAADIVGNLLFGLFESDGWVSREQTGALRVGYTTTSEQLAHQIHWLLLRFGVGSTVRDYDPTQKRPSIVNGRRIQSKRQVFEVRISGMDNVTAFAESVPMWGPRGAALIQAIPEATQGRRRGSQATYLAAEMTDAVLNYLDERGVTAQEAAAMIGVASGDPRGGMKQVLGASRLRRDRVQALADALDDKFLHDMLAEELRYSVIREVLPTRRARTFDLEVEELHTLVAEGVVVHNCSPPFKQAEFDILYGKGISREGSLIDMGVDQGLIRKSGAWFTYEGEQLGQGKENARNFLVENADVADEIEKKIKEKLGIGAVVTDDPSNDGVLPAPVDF

[13] = tested on: HEK293; test: optical interference in Abeta FP readout, dose response, artefact control for IDE activator project, biochemical, fluorescence polarization (AID 588442); type: functional, cell-based; settings: Homo sapiens
[14] = tested on: HeLa; test: viability loss in HeLa cells – cell-based, 24 h, cherry-picked samples, cytotoxicity control, dose response (AID 504726); type: functional; settings: Homo sapiens;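 note: potency for cytotoxicity as loss of luminescence signal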
[15] = tested on: HEK293; test: membrane integrity loss in HEK cells – cell-based, fluorescence, cytotoxicity control for IDE activator project, dose response (AID 588440); type: functional; settings: Homo sapiens;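 note: cytotoxicity by LDH release measuring loss of membrane integrity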
[16] = target: T3, Insulin-degrading enzyme (Homo sapiens, UniProt P14735); test: recombinant IDE activation, cell-free – biochemical, fluorescence polarization, counter-screen for IDE activator project, dose response (AID 588681)
T3 sequence (P14735 whole entry): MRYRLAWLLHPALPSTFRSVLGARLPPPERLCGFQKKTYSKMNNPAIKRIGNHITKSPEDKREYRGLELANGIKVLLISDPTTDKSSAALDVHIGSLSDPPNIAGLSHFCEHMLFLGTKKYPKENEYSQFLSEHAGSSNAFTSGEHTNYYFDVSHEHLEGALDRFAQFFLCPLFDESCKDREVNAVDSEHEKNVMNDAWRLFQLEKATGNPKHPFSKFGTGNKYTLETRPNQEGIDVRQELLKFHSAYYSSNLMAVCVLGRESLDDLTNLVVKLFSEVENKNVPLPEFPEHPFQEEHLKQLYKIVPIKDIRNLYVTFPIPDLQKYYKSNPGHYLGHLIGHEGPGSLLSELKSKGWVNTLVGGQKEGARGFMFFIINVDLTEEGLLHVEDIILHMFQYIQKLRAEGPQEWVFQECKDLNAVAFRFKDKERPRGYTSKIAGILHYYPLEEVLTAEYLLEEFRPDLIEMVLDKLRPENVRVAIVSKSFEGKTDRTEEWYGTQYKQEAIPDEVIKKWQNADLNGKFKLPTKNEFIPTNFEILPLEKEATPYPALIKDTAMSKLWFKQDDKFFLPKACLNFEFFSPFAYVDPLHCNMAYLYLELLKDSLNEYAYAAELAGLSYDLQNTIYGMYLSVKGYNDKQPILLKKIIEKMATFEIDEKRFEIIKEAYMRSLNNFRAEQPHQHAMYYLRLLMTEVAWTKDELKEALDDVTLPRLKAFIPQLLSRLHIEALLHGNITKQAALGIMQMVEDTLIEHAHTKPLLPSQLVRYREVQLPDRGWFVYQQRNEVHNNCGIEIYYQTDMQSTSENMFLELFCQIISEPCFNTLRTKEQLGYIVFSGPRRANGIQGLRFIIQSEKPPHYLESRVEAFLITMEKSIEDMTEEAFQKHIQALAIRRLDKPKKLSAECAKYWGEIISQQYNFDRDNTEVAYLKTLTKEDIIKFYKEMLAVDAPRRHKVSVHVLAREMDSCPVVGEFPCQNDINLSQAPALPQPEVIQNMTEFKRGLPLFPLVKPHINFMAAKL

[17] = target: Protein S100-A4 (Homo sapiens, UniProt P26447); test: human S100A4 peptide interaction inhibition curves – biochemical, fluorescence polarization, cherry-picked hits, dose response (AID 687001); type: functional
Sequence of Protein S100-A4 (P26447 whole entry): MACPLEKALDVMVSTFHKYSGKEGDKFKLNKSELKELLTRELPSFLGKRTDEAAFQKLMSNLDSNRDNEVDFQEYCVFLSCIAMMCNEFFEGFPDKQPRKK

[18] = target: T4, ORF 73 (Human herpesvirus 8, UniProt O40947); test: KSHV LANA DNA-binding disruption – biochemical, fluorescence polarization, cherry-picked samples, dose response (AID 504725); design: species or system Human gammaherpesvirus 8;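 note: fluorescence polarization of a labeled DNA duplex reporting LANA DNA binding; potency is for inhibitors that block LANA binding to the DNA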
T4 sequence (O40947 whole entry): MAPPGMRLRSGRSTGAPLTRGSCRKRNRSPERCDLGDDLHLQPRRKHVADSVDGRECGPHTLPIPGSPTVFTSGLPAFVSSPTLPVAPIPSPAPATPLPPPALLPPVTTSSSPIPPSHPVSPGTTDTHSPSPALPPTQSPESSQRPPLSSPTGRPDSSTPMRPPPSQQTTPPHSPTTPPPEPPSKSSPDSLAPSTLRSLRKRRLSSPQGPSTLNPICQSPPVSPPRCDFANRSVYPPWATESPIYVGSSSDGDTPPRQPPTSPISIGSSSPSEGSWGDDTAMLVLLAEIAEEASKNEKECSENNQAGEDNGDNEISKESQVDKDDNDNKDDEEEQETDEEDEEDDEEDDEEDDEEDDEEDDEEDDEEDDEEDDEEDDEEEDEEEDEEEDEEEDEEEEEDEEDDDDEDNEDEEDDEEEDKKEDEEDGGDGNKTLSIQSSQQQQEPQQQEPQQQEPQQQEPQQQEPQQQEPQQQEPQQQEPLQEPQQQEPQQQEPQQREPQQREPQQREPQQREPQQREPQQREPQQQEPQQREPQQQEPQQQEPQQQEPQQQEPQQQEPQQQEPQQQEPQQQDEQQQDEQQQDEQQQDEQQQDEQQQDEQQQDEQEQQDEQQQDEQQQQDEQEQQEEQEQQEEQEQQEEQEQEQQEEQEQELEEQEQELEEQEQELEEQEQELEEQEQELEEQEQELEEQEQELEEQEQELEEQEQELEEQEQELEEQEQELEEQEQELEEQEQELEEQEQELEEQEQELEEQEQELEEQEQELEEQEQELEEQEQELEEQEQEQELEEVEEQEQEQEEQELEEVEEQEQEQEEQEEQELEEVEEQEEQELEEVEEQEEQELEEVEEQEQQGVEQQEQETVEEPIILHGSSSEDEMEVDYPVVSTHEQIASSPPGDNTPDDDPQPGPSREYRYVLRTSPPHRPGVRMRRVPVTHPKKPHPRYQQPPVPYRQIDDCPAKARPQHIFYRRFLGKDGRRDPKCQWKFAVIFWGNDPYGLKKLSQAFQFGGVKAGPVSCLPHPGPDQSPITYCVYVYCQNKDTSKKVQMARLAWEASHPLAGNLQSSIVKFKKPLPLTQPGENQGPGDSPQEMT

[19] = target: T3, Insulin-degrading enzyme; test: cellular IDE activation of Abeta substrate cleavage – fluorescence polarization, HEK cells, dose response (AID 588439); type: functional, cell-based
[20] = A Cell-Based Confirmatory Screen for Compounds that Inhibit VEEV, TC-83 (8).; type: functional

Sequence of Metabotropic glutamate receptor 3 (P31422 whole entry): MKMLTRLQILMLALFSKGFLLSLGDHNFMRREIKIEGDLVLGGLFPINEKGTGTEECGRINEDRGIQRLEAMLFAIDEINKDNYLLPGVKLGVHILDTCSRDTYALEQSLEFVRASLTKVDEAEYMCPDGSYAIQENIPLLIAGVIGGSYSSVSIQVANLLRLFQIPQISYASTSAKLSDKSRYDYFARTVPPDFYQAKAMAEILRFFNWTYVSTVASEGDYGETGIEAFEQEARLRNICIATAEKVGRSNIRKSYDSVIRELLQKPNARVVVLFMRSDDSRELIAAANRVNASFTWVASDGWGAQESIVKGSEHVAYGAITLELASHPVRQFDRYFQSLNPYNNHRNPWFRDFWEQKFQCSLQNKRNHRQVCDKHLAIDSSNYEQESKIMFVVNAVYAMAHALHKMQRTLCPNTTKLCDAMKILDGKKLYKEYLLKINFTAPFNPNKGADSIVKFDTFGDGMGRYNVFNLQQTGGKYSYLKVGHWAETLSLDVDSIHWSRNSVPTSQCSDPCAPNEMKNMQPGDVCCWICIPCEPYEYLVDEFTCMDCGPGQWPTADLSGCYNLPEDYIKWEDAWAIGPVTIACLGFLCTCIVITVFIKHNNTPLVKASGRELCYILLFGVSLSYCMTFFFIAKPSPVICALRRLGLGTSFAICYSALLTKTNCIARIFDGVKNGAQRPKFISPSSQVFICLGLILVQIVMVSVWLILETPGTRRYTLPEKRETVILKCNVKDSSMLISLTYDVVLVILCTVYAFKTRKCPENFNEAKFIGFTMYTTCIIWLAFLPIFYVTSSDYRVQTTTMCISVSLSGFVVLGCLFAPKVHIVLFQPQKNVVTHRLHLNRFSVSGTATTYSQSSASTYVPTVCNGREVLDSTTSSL

Structure (SMILES): COc1ccc(C#Cc2ccc(C(=O)N3CCC(OC)C3)cc2)cc1 (stereo not given)
- IC50 [1]: 10.7 µM (active)

Structure (SMILES): O=C(O)Cc1ccccc1C(=O)N1CCc2ccccc2[C@H]1CN1C(=O)c2ccccc2C1=O
- AC50 [2]: 61.4 µM (active)

Structure (SMILES): COc1ccccc1NC(=O)c1cc(=O)c(OC)c[nH]1
- IC50 [3]: > 100 µM (inactive)
- IC50 [4]: > 100 µM (inactive)

Structure (SMILES): CCC(=O)N1Cc2cc(C(=O)Nc3nccs3)nc(-c3cccc(-c4ccccc4OC)c3)c2[C@H]1CCO
- AbsAC35 [5]: 49.1 µM
- AbsAC35 [6]: 247.5 µM

Structure (SMILES): COC(=O)Cn1/c(=N/C(=O)c2cc(-c3cccs3)nc3ccccc23)sc2cc(S(N)(=O)=O)ccc21
- IC50 [7]: > 94.1 µM (inactive)
- IC50 [8]: 28.2 µM (active)

Structure (SMILES): O=C(O)c1cc(-c2cccs2)[nH]n1
- EC50 [9]: > 67.6 µM (inactive)

Structure (SMILES): Cc1cc(=O)n(C2CCS(=O)(=O)C2)[nH]1 (stereo not given)
- AC50 [10]: 3.43 µM (active)
- IC50 [11]: > 128 µM (inactive)
- EC50 [12]: 1.91 µM (active)

Structure (SMILES): COc1ccc2c3c(cccc13)C(=O)CC2
- EC50 [13]: > 18.6 µM (inactive)
- AC50 [14]: 31.7 µM (active)
- IC50 [15]: > 89.2 µM (inactive)
- EC50 [16]: > 54.7 µM (inactive)
- AC50 [17]: 7.21 µM (active)
- AC50 [18]: 6.76 µM (active)
- EC50 [19]: > 54.7 µM (inactive)

Structure (SMILES): CN1CCN(C)/C(=N/c2ccc(F)cc2C(=O)Nc2ccccc2)C1
- IC50 [20]: 6.39 µM (active)
